Experimental findings from US10946109B2, “Polymer-type fluorescent molecule probe” (HIROSHI MAEDA, priority 2011, dated 2021) are described below.

The subject of this assay is Human pancreatic cancer cells PC1.0. The assay is described as follows: cells. As to conditions: light or radiation study.

Experimental: Human pancreatic cancer cells PC1.0 were plated in 96 well culture plate at 1000 cells/well and cultured overnight. Then, methylene blue (MB) or SMA-methylene blue (SMA-MB) micelle was added to the cultured cells above, and allowed to culture another 48 hours. Light irradiation was carried out using tungsten xenon lamp at 15 cm distance from the cell surface for 20 min. Then, the survival rate of the cells was quantified by MTT Method.

One may read the IC50 as the point on the concentration scale where inhibition reaches its midpoint. As to `CN(C)c1ccc2nc3ccc(=[N+](C)C)cc-3sc2c1` [Methylene blue, methylene blue], the 50% inhibitory concentration (IC50) was found to be 0.5 µM. The same compound displayed an IC50 (48 h) of 4.5 µM.
